Experimental data from patent US8586552B2, “4,6-substituted 2,5-dideoxystreptamine aminoglycoside antibiotics” (SelectX Pharmaceuticals, Inc., priority 2012, dated 2013).
Values after ≈ are worked out from the molar mass of the structure shown.

Key:
Format in all cases: cell-based
[1] = test system: Pseudomonas aeruginosa (Pae, PAWT, ATCC #27853); test: MIC against Pseudomonas aeruginosa reference strain PAWT; conditions: Pseudomonas aeruginosa wild type PAWT; for MIC: ATCC27853
Description: (§1) For evaluation of efficacy, we assembled panels of representative gram-negative pathogens, including Pseudomonas aeruginosa (Pae, PAWT, ATCC #27853), Klebsiella pneumoniae (Kpn, KPWT, ATCC #700603), Acinetobacter baumannii (Aba, ABWT, ATCC #BAA-747) and Escherichia coli (Eco, ECWT, ATCC #25922). These reference strains are useful indicator organisms to characterize compound activity against bacteria from a pathogenic genus in the absence of multiple resistance mechanisms. Two strains (PAWT and ECWT) are reference strains cited within the Clinical and Laboratory Standards Institute (CLSI) Standards for susceptibility testing by Minimum Inhibitory Concentration (MIC) (SXPS2) and are well suited for quality control. ABWT and ECWT are widely susceptible to aminoglycoside antibiotics, whereas PAWT and KPWT harbor a single aminoglycoside-modifying enzyme (AGME) that targets 4,6-substituted-2-deoxystreptamine AGs. […]

[2] = test system: Pseudomonas aeruginosa PR2 (clinical isolate with intermediate aminoglycoside resistance); test: MIC against Pseudomonas aeruginosa clinical isolate PR2; conditions: Pseudomonas aeruginosa resistant strain PR2
Description: (§2) Pseudomonas aeruginosa is a prominent nosocomial pathogen. In addition to intrinsic antibiotic resistance to several antibiotics, Pseudomonas has acquired multiple additional mechanisms of resistance. As a result, therapeutic options for the treatment of infections caused by Pseudomonas aeruginosa are limited. We acquired clinical isolates of Pseudomonas aeruginosa (Micromyx LLC, Kalamazoo, Mich.), and used this panel to test compounds for Pseudomonicidal activity. […] For each strain and antibiotic, the mechanism(s) of resistance was inferred from the resistance profile. The presence of specific AGMEs was confirmed by colony PCR.

[3] = test system: Pseudomonas aeruginosa PR3 (high-level, efflux-mediated, pan-aminoglycoside resistance); test: MIC against Pseudomonas aeruginosa clinical isolate PR3; conditions: for MIC PR3: Pseudomonas aeruginosa resistant strain PR3; for MIC: Pseudomonas aeruginosa, read-out: MIC PR3
Description: as §2

[4] = test system: Pseudomonas aeruginosa PR1 (clinical isolate with intermediate aminoglycoside resistance); test: MIC against Pseudomonas aeruginosa clinical isolate PR1; conditions: Pseudomonas aeruginosa resistant strain PR1
Description: as §2

[5] = test system: more than fifty resistant contemporary clinical isolates of Pseudomonas aeruginosa; test: MIC90 against panel of resistant clinical isolates of Pseudomonas aeruginosa; conditions: Pseudomonas aeruginosa
Description: To assess this, a panel of more than fifty resistant contemporary clinical isolates of Pseudomonas aeruginosa were obtained from multiple sources including JMI Laboratories (North Liberty, Iowa), Pfizer (Groton, Conn.), Micromyx (Kalamazoo, Mich.), Dr. J. Chow (Wayne State University). Strains were characterized for resistance to a wide variety of classes of antibiotics including aminoglycosides, β-lactams and fluoroquinolones. […] This reflects the difficulty in treating clinical Pseudomonas aeruginosa infections. […] Using this stringent panel, we tested a subset of compounds of the invention (Table 4).

[6] = test system: fifty resistant contemporary clinical isolates of Klebsiella pneumoniae; test: MIC90 against panel of resistant clinical isolates of Klebsiella pneumoniae; conditions: Klebsiella pneumoniae; fifty resistant contemporary clinical isolates, reference antibiotics
Description: Using this stringent Klebsiella pneumoniae panel, we tested a subset of compounds of the invention.

[7] = test system: Klebsiella pneumoniae (Kpn, KPWT, ATCC #700603); test: MIC against Klebsiella pneumoniae reference strain KPWT; conditions: Klebsiella pneumoniae KPWT, Table 2; for MIC: ATCC700603
Description: as §1, with “These reference strains are useful indicator organisms to characterize compound activity against bacteria from a pathogenic genus in the absence of multiple resistance mechanisms.” left out

[8] = test system: Escherichia coli (Eco, ECWT, ATCC #25922); test: MIC against Escherichia coli reference strain ECWT; conditions: for MIC: ATCC25922
Description: For evaluation of efficacy, we assembled panels of representative gram-negative pathogens, including Pseudomonas aeruginosa (Pae, PAWT, ATCC #27853), Klebsiella pneumoniae (Kpn, KPWT, ATCC #700603), Acinetobacter baumannii (Aba, ABWT, ATCC #BAA-747) and Escherichia coli (Eco, ECWT, ATCC #25922). These reference strains are useful indicator organisms to characterize compound activity against bacteria from a pathogenic genus in the absence of multiple resistance mechanisms. Two strains (PAWT and ECWT) are reference strains cited within the Clinical and Laboratory Standards Institute (CLSI) Standards for susceptibility testing by Minimum Inhibitory Concentration (MIC) (SXPS2) and are well suited for quality control. ABWT and ECWT are widely susceptible to aminoglycoside antibiotics, whereas PAWT and KPWT harbor a single aminoglycoside-modifying enzyme (AGME) that targets 4,6-substituted-2-deoxystreptamine AGs.

[9] = test system: Acinetobacter baumannii (Aba, ABWT, ATCC #BAA-747); test: MIC against Acinetobacter baumannii reference strain ABWT; conditions: for MIC: ATCCBAA747
Description: as §1

[10] = test system: Klebsiella pneumoniae screening panel KPWT, KR1, KR2, KR3; test: Klebsiella pneumoniae screening panel (KPWT, KR1, KR2, KR3), reference AGs
Description: Klebsiella pneumoniae (Kpn) and Escherichia coli (Eco) are gram-negative (like Pae), enteric pathogens with increasing clinical relevance. Many clinical isolates of Kpn and Eco harbor extended-spectrum beta-lactamases and are no longer sensitive to most beta-lactam antibiotics. We acquired clinical isolates of Klebsiella pneumoniae and Escherichia coli (Micromyx LLC, Kalamazoo, Mich.) and used this panel to test compounds for anti-enteric activity.

Molecule | MIC PAWT [1] [µg/mL] | MIC PR2 [2] [µg/mL] | MIC PR3 [3] [µg/mL] | MIC PR1 [4] [µg/mL] | MIC90 [5] [µg/mL] | MIC90 [6] [µg/mL] | other results
NCC[C@H](O)C(=O)N[C@@H]1C[C@H](N)[C@@H](O[C@H]2O[C@H](CN)[C@@H](O)[C@H](O)[C@H]2O)[C@@H](F)[C@H]1O[C@H]1O[C@H](CNC(=O)[C@H](N)CCCNC(N)=O)[C@@H](O)[C@H](N)[C@H]1O [SXP1212-56″-7] | 4 (≈ 5.38 µM) | 16 (≈ 21.5 µM) | 128 (≈ 172 µM) | 16 (≈ 21.5 µM) | – | – | –
CC(C)[C@H](N)C(=O)NC[C@H]1O[C@H](O[C@@H]2[C@H](F)[C@H](O[C@H]3O[C@H](CN)[C@@H](O)[C@H](O)[C@H]3O)[C@@H](N)C[C@H]2NC(=O)[C@@H](O)CCN)[C@H](O)[C@@H](N)[C@@H]1O [SXP1212-56″-8] | 4 (≈ 5.83 µM) | 8 (≈ 11.7 µM) | 64 (≈ 93.3 µM) | 8 (≈ 11.7 µM) | – | – | –
C[C@H]1[C@H](NC(=O)/C(=N\OC(C)(C)C(=O)O)c2csc(N)n2)C(=O)N1S(=O)(=O)O [aztreonam] | – | – | – | – | ≥ 64 | ≥ 64 | –
CO/N=C(\C(=O)N[C@@H]1C(=O)N2C(C(=O)[O-])=C(C[N+]3(C)CCCC3)CS[C@H]12)c1csc(N)n1 [cefepime] | – | – | – | – | ≥ 64 | ≥ 64 | –
CC(C)(O/N=C(\C(=O)N[C@@H]1C(=O)N2C(C(=O)[O-])=C(C[n+]3ccccc3)CS[C@H]12)c1csc(N)n1)C(=O)O [ceftazidime] | – | – | – | – | ≥ 64 | ≥ 64 | –
CO/N=C(\C(=O)N[C@@H]1C(=O)N2C(C(=O)O)=C(CSc3nc(=O)c(=O)[nH]n3C)CS[C@H]12)c1csc(N)n1 [ceftriaxone] | – | – | – | – | ≥ 64 | ≥ 64 | –
NC[C@@H]1CC[C@@H](N)[C@@H](O[C@H]2[C@H](O)[C@@H](O[C@H]3O[C@H](CO)[C@@H](O)[C@H](N)[C@H]3O)[C@H](N)C[C@@H]2N)O1 [dibekacin] | – | – | – | – | – | – | MIC [7]: 16 µg/mL (≈ 35.4 µM); MIC [1]: 0.25 to 0.5 µg/mL (≈ 0.554 to 1.11 µM); MIC PAWT ([1]; listed as DIB): 0.25 to 0.5 µg/mL; MIC [2]: > 64 µg/mL; MIC [3]: > 64 µg/mL; MIC [4]: 4 µg/mL (≈ 8.86 µM); MIC [8]: 1 to 2 µg/mL (≈ 2.21 to 4.43 µM); MIC [9]: 0.25 µg/mL (≈ 0.554 µM); potency against Klebsiella pneumoniae test panel [10]: limited to no activity
C[C@@H](O)[C@H]1C(=O)N2C(C(=O)O)=C(S[C@@H]3CN[C@H](CNS(N)(=O)=O)C3)[C@H](C)[C@H]12 [doripenem] | – | – | – | – | ≥ 64 | ≥ 64 | –
C[C@@H](O)[C@H]1C(=O)N2C(C(=O)O)=C(S[C@@H]3CN[C@H](C(=O)Nc4cccc(C(=O)O)c4)C3)[C@H](C)[C@H]12 [ertapenem] | – | – | – | – | ≥ 64 | ≥ 64 | –
C[C@@H](O)[C@H]1C(=O)N2C(C(=O)O)=C(SCCN=CN)C[C@H]12 [imipenem] | – | – | – | – | ≥ 64 | ≥ 64 | –
NC[C@H]1O[C@H](O[C@H]2[C@H](O)[C@@H](O[C@H]3O[C@H](CO)[C@@H](O)[C@H](N)[C@H]3O)[C@H](N)C[C@@H]2N)[C@H](O)[C@@H](O)[C@@H]1O [kanamycin A] | >64 | >64 | >64 | >64 | – | – | MIC KPWT [7]: 32 µg/mL (≈ 66 µM); MIC ECWT [8]: 4 µg/mL (≈ 8.26 µM); MIC ABWT [9]: 1 µg/mL (≈ 2.06 µM); potency against Klebsiella pneumoniae test panel [10]: limited to no activity
NC[C@H]1O[C@H](O[C@H]2[C@H](O)[C@@H](O[C@H]3O[C@H](CO)[C@@H](O)[C@H](N)[C@H]3O)[C@H](N)C[C@@H]2N)[C@H](N)[C@@H](O)[C@@H]1O [kanamycin B] | 16 (≈ 33.1 µM) | >64 | >64 | 64 (≈ 132 µM) | – | – | MIC KPWT [7]: 16 µg/mL (≈ 33.1 µM); MIC ECWT [8]: 2 µg/mL (≈ 4.14 µM); MIC ABWT [9]: 0.5 to 1 µg/mL; potency against Klebsiella pneumoniae test panel [10]: limited to no activity
C[C@H]1COc2c(N3CCN(C)CC3)c(F)cc3c(=O)c(C(=O)O)cn1c23 [levofloxacin] | – | – | – | – | ≥ 64 | ≥ 64 | –
C[C@@H](O)[C@H]1C(=O)N2C(C(=O)O)=C(S[C@@H]3CN[C@H](C(=O)N(C)C)C3)[C@H](C)[C@H]12 [meropenem] | – | – | – | – | ≥ 64 | ≥ 64 | –
NC[C@@H]1O[C@H](O[C@H]2[C@@H](O)[C@H](O[C@@H]3[C@@H](O)[C@H](N)C[C@H](N)[C@H]3O[C@H]3O[C@H](CN)[C@@H](O)[C@H](O)[C@H]3N)O[C@@H]2CO)[C@H](N)[C@@H](O)[C@@H]1O [neomycin] | 32 (≈ 52.1 µM) | 8 to 16 | >64 | 32 (≈ 52.1 µM) | – | – | MIC KPWT [7]: 4 to 8 µg/mL; MIC ECWT [8]: 1 µg/mL (≈ 1.63 µM); MIC ABWT [9]: 0.25 to 0.5 µg/mL
CCN1CCN(C(=O)N[C@@H](C(=O)N[C@@H]2C(=O)N3[C@@H]2SC(C)(C)[C@@H]3C(=O)O)c2ccccc2)C(=O)C1=O [piperacillin] | – | – | – | – | ≥ 64 | ≥ 64 | –
CN[C@@H]1[C@@H](O)[C@@H](O[C@@H]2[C@@H](O)[C@H](O[C@H]3OC(CN)=CC[C@H]3N)[C@@H](N)C[C@H]2N)OC[C@]1(C)O [sisomycin] | 0.25 to 0.5 | >64 | >64 | 4 (≈ 8.94 µM) | – | – | MIC KPWT [7]: 1 to 2 µg/mL
CN[C@@H]1[C@H](O)[C@H](NC)[C@H]2O[C@@]3(O)C(=O)C[C@@H](C)O[C@H]3O[C@@H]2[C@H]1O [spectinomycin] | – | – | – | – | – | – | MIC [7]: 64 µg/mL (≈ 193 µM); MIC [1]: > 64 µg/mL; MIC [2]: > 64 µg/mL; MIC [3]: > 64 µg/mL; MIC [4]: > 64 µg/mL; MIC [8]: 8 to 16 µg/mL (≈ 24.1 to 48.1 µM); MIC [9]: 16 µg/mL (≈ 48.1 µM)
[H]/N=C(/N)N[C@H]1[C@H](O)[C@@H](O)[C@H](O[C@@H]2O[C@@H](C)[C@](O)(C=O)[C@H]2O[C@@H]2O[C@@H](CO)[C@H](O)[C@@H](O)[C@@H]2NC)[C@@H](N/C(N)=N\[H])[C@@H]1O [streptomycin] | – | – | – | – | – | – | MIC [7]: 1 to 2 µg/mL (≈ 1.72 to 3.44 µM); MIC [1]: 16 µg/mL (≈ 27.5 µM); MIC [2]: 16 µg/mL (≈ 27.5 µM); MIC [4]: 64 µg/mL (≈ 110 µM); MIC [8]: 4 µg/mL (≈ 6.88 µM); MIC [9]: 2 to 4 µg/mL (≈ 3.44 to 6.88 µM)
NC[C@H]1O[C@H](O[C@H]2[C@H](O)[C@@H](O[C@H]3O[C@H](CO)[C@@H](O)[C@H](N)[C@H]3O)[C@H](N)C[C@@H]2N)[C@H](N)C[C@@H]1O [tobramycin] | – | – | – | – | ≥ 64 | ≥ 64 | MIC [7]: 8 µg/mL (≈ 17.1 µM); MIC [1]: 0.25 µg/mL (≈ 0.535 µM); MIC [2]: > 64 µg/mL; MIC [3]: > 64 µg/mL; MIC [4]: 2 µg/mL (≈ 4.28 µM); MIC [8]: 1 µg/mL (≈ 2.14 µM); MIC [9]: 0.25 µg/mL (≈ 0.535 µM)
gentamycin | 1 | >64 | >64 | 8 | – | – | MIC KPWT [7]: 8 µg/mL; MIC ECWT [8]: 0.5 µg/mL; MIC ABWT [9]: 0.25 to 0.5 µg/mL
